Values quoted from earlier work in US20120141398A1, “HAIR DYE CONTAINING ONE OR MORE EDIBLE OR COSMETIC COLORS” (priority 2010, published 2012).

Experiments:
large rat = details: text b11, species not given

COc1ccc(N)cc1N [2,4 diaminoanisole]
Ames Test (mutagenicity) (Salmonella typhimurium): +

CCc1ccc(N)cc1N [2,4-diamino-ethylbenzene]
Ames Test (mutagenicity) (Salmonella typhimurium): +

Nc1ccccc1O [2-Aminophenol]
Median Lethal Dose/Kg (small rat; small rat): 800 g (small rat) g/Kg

Nc1cc([N+](=O)[O-])ccc1O [2-amino-4-nitrophenolate]
Ames Test (mutagenicity) (Salmonella typhimurium): +

Nc1ccc(OCCO)cc1[N+](=O)[O-] [4-amino-3-nitro-phenoxyethanol]
Ames Test (mutagenicity) (Salmonella typhimurium): +

Oc1cccc(O)c1 [Resorcinol]
median lethal dose (small rat; rat, in vivo): 200 mg/kg

Nc1cccc(N)c1 [m-phenylenediamine]
Ames Test (mutagenicity) (Salmonella typhimurium): +

Nc1ccccc1N [o-phenylenediamine]
Ames Test (mutagenicity) (Salmonella typhimurium): +

Nc1ccc(N)cc1 [p-phenylenediamine]
Ames Test (mutagenicity) (Salmonella typhimurium): + | median lethal dose (large rat): 80 mg/kg
